According to patent US4431665A, “Acylated laidlomycin derivatives” (priority 1980, dated 1984):
Where two headings read alike, the source gives them in different places.

Legend:
[1] = tested on: rumen microorganisms (mixed microbial population of rumen contents); assay: Enhancement of intraruminal propionic acid production, batch culture fermentation of rumen contents; type: cell-based, bovine (rumen-fistulated); conditions: 9 h, 39° C.
Method: Enhancement of intraruminal propionic acid production is determined using a batch culture fermentation system. Rumen contents from a rumen-fistulated bovine are mixed with an equal amount of buffer which contains mineral, energy and nitrogen sources required for continued growth and metabolism of the mixed microbial population. Aliquots of this inoculum then are transferred to incubation vessels containing appropriate amounts of sodium laidlomycin (Na L.) (see Example 1A), and L. butyrate (L.C4) (prepared according to the procedure of Example 1A). After 9 hours of incubation at 39° C., concentrations of individual volatile fatty acids in each incubation vessel are determined by gas-liquid chromatography. The net production of each individual volatile fatty acid (acetic [AA], propionic [PA] and butyric [BA]) is calculated as the difference between the concentration after incubation and the concentration before incubation. The molar percentage of propionic acid produced is calculated from the following equation: [formula]
The comparative activities of sodium laidlomycin (Na L.) and the laidlomycin butyrate upon propionic acid and lactic acid production are set forth in Tables 1 and 2 where the concentration is in micrograms per ml (μg/ml).
(§1) The procedure of Example 2 was followed to compare laidlomycin (L.), sodium L. (Na L.), L.-propionate (L.C3), L. butyrate (L.C4), L. isobutyrate (L. isoC4), L. pentanoate (L.C5) and L. hexanoate (L.C6).
(§2) The procedure of Example 2 was followed to compare the activities of L. heptanoate (L. C7), L. octanoate (L. C8), L. decanoate (L. C10) and L. dodecanoate (L. C12) in increasing propionic acid production and inhibiting lactic acid production.
(§3) The procedure of Example 2 was followed to compare the activities of laidlomycin (L.) acetate (L. C2), L. pentanoate (L. C5), L. stearate (L. C18), L. cyclobutylcarboxylate, L. cyclopentylcarboxylate, L. cyclohexylcarboxylate and L. cyclopropylcarboxylate.

[2] = tested on: rumen contents (lactic acid accumulation); assay: Inhibition of lactic acid accumulation, second batch culture fermentation of rumen contents with glucose; type: cell-based, bovine (rumen fistulated); conditions: 6 h, 39° C.; for Lactic Acid Accumulation (μ mol/ml): Table 8, 0 μg/ml: 40.47; for activity at 1.25 µg/mL / activity at 5 µg/mL / activity at 20 µg/mL / activity at 0.31 µg/mL: Bos taurus; for activity at 0.31 µg/mL: .31 μg/ml
Method: Inhibition of lactic acid accumulation is determined using a second batch culture fermentation system. Rumen contents from a rumen fistulated bovine are mixed with an equal amount of buffer which contains a 150 mM concentration of glucose. Following 6 hours of incubation at 39° C., lactic acid produced in the fermentation is analyzed by a specific enzymatic assay. The concentration of lactic acid in the fermentation broth is quantified by the increase in absorbance of light at […] when nicotinamide adenine dinucleotide is reduced by lactic acid with the aid of lactate dehydrogenase. […]
as §1, §2, §3

[3] = Table 7, 1.25 μg/ml, 0 μg/ml: 36.1
[4] = Table 7, 2.5 μg/ml, 0 μg/ml: 36.1
[5] = Table 7, 5 μg/ml, 0 μg/ml: 36.1
[6] = Table 7, 10 μg/ml, 0 μg/ml: 36.1
[7] = Table 7, 20 μg/ml, 0 μg/ml: 36.1
[8] = Table 7, .313 μg/ml, 0 μg/ml: 36.1
[9] = Table 7, .625 μg/ml, 0 μg/ml: 36.1
[10] = Table 3, 1.25 μg/ml, 0 μg/ml: 28.5
[11] = Table 3, 5 μg/ml, 0 μg/ml: 28.5
[12] = Table 3, 20 μg/ml, 0 μg/ml: 28.5
[13] = Table 3, .31 μg/ml, 0 μg/ml: 28.5
[14] = read-out: Accumulation of Lactic Acid - % of Control, Table 4, 1.25 μg/ml
[15] = read-out: Accumulation of Lactic Acid - % of Control, Table 4, 5 μg/ml
[16] = read-out: Accumulation of Lactic Acid - % of Control, Table 4, 20 μg/ml
[17] = read-out: Accumulation of Lactic Acid - % of Control, Table 4

## CCC(=O)OC(C(C)C(=O)O)C(C)C1OC2(CCC(C)(C3CCC(C)(C4OC(C5OC(O)(COC(=O)C6CCC6)C(C)CC5C)CC4C)O3)O2)CC(O)C1C (stereo not drawn) [Cyclobutylcarboxylate, laidlomycin cyclobutylcarboxylate]
[1]; [3]
  % Propionic Acid: 50.0%
[1]; [4]
  % Propionic Acid: 52.5%
[1]; [5]
  % Propionic Acid: 51.7%
[1]; [6]
  % Propionic Acid: 51.8%
[1]; [7]
  % Propionic Acid: 51.2%
[1]; [8]
  % Propionic Acid: 47.5%
[1]; [9]
  % Propionic Acid: 47.1%
[2]; 1.25 μg/ml
  Lactic Acid Accumulation (μ mol/ml): 3.82 μ mol/ml
[2]; 2.5 μg/ml
  Lactic Acid Accumulation (μ mol/ml): 4.01 μ mol/ml
[2]; 5 μg/ml
  Lactic Acid Accumulation (μ mol/ml): 4.32 μ mol/ml
[2]; 10 μg/ml
  Lactic Acid Accumulation (μ mol/ml): 4.73 μ mol/ml
[2]; 20 μg/ml
  Lactic Acid Accumulation (μ mol/ml): 4.75 μ mol/ml
[2]; .313 μg/ml
  Lactic Acid Accumulation (μ mol/ml): 23.25 μ mol/ml
[2]; .625 μg/ml
  Lactic Acid Accumulation (μ mol/ml): 8.05 μ mol/ml

## CCC(=O)OC(C(C)C(=O)O)C(C)C1OC2(CCC(C)(C3CCC(C)(C4OC(C5OC(O)(COC(=O)C6CCCCC6)C(C)CC5C)CC4C)O3)O2)CC(O)C1C (stereo not drawn) [Cyclohexylcarboxylate, laidlomycin cyclohexylcarboxylate]
[1]; [3]
  % Propionic Acid: 50.1%
[1]; [4]
  % Propionic Acid: 50.8%
[1]; [5]
  % Propionic Acid: 51.6%
[1]; [6]
  % Propionic Acid: 51.8%
[1]; [7]
  % Propionic Acid: 53.3%
[1]; [8]
  % Propionic Acid: 47.2%
[1]; [9]
  % Propionic Acid: 49.0%
[2]; 1.25 μg/ml
  Lactic Acid Accumulation (μ mol/ml): 3.74 μ mol/ml
[2]; 2.5 μg/ml
  Lactic Acid Accumulation (μ mol/ml): 4.40 μ mol/ml
[2]; 5 μg/ml
  Lactic Acid Accumulation (μ mol/ml): 4.83 μ mol/ml
[2]; 10 μg/ml
  Lactic Acid Accumulation (μ mol/ml): 4.97 μ mol/ml
[2]; 20 μg/ml
  Lactic Acid Accumulation (μ mol/ml): 5.72 μ mol/ml
[2]; .313 μg/ml
  Lactic Acid Accumulation (μ mol/ml): 35.55 μ mol/ml
[2]; .625 μg/ml
  Lactic Acid Accumulation (μ mol/ml): 12.78 μ mol/ml

## CCC(=O)OC(C(C)C(=O)O)C(C)C1OC2(CCC(C)(C3CCC(C)(C4OC(C5OC(O)(COC(=O)C6CCCC6)C(C)CC5C)CC4C)O3)O2)CC(O)C1C (stereo not drawn) [Cyclopentylcarboxylate, laidlomycin cyclopentylcarboxylate]
[1]; [3]
  % Propionic Acid: 51.9%
[1]; [4]
  % Propionic Acid: 50.3%
[1]; [5]
  % Propionic Acid: 51.1%
[1]; [6]
  % Propionic Acid: 51.6%
[1]; [7]
  % Propionic Acid: 50.0%
[1]; [8]
  % Propionic Acid: 47.1%
[1]; [9]
  % Propionic Acid: 47.9%
[2]; 1.25 μg/ml
  Lactic Acid Accumulation (μ mol/ml): 3.63 μ mol/ml
[2]; 2.5 μg/ml
  Lactic Acid Accumulation (μ mol/ml): 3.73 μ mol/ml
[2]; 5 μg/ml
  Lactic Acid Accumulation (μ mol/ml): 4.08 μ mol/ml
[2]; 10 μg/ml
  Lactic Acid Accumulation (μ mol/ml): 4.53 μ mol/ml
[2]; 20 μg/ml
  Lactic Acid Accumulation (μ mol/ml): 9.66 μ mol/ml
[2]; .313 μg/ml
  Lactic Acid Accumulation (μ mol/ml): 24.75 μ mol/ml
[2]; .625 μg/ml
  Lactic Acid Accumulation (μ mol/ml): 6.79 μ mol/ml

## CCC(=O)OC(C(C)C(=O)O)C(C)C1OC2(CCC(C)(C3CCC(C)(C4OC(C5OC(O)(COC(=O)C6CC6)C(C)CC5C)CC4C)O3)O2)CC(O)C1C (stereo not drawn) [Cyclopropylcarboxylate, laidlomycin cyclopropylcarboxylate]
[1]; [3]
  % Propionic Acid: 49.7%
[1]; [4]
  % Propionic Acid: 49.3%
[1]; [5]
  % Propionic Acid: 50.9%
[1]; [6]
  % Propionic Acid: 49.6%
[1]; [7]
  % Propionic Acid: 50.7%
[1]; [8]
  % Propionic Acid: 47.7%
[1]; [9]
  % Propionic Acid: 46.4%
[2]; 1.25 μg/ml
  Lactic Acid Accumulation (μ mol/ml): 2.50 μ mol/ml
[2]; 2.5 μg/ml
  Lactic Acid Accumulation (μ mol/ml): 3.16 μ mol/ml
[2]; 5 μg/ml
  Lactic Acid Accumulation (μ mol/ml): 3.17 μ mol/ml
[2]; 10 μg/ml
  Lactic Acid Accumulation (μ mol/ml): 3.53 μ mol/ml
[2]; 20 μg/ml
  Lactic Acid Accumulation (μ mol/ml): 3.96 μ mol/ml
[2]; .313 μg/ml
  Lactic Acid Accumulation (μ mol/ml): 15.54 μ mol/ml
[2]; .625 μg/ml
  Lactic Acid Accumulation (μ mol/ml): 2.12 μ mol/ml

## CCC(=O)OC(C(C)C(=O)O)C(C)C1OC2(CCC(C)(C3CCC(C)(C4OC(C5OC(O)(COC(C)=O)C(C)CC5C)CC4C)O3)O2)CC(O)C1C (stereo not drawn) [L. C2]
[1]; [3]
  % Propionic Acid: 50.7%
[1]; [4]
  % Propionic Acid: 50.4%
[1]; [5]
  % Propionic Acid: 52.2%
[1]; [6]
  % Propionic Acid: 51.2%
[1]; [7]
  % Propionic Acid: 53.0%
[1]; [8]
  % Propionic Acid: 42.8%
[1]; [9]
  % Propionic Acid: 47.1%
[2]; 1.25 μg/ml
  Lactic Acid Accumulation (μ mol/ml): 6.89 μ mol/ml
[2]; 2.5 μg/ml
  Lactic Acid Accumulation (μ mol/ml): 4.34 μ mol/ml
[2]; 5 μg/ml
  Lactic Acid Accumulation (μ mol/ml): 4.35 μ mol/ml
[2]; 10 μg/ml
  Lactic Acid Accumulation (μ mol/ml): 4.35 μ mol/ml
[2]; 20 μg/ml
  Lactic Acid Accumulation (μ mol/ml): 5.28 μ mol/ml
[2]; .313 μg/ml
  Lactic Acid Accumulation (μ mol/ml): 41.19 μ mol/ml
[2]; .625 μg/ml
  Lactic Acid Accumulation (μ mol/ml): 22.23 μ mol/ml

## CCC(=O)OCC1(O)OC(C2CC(C)C(C3(C)CCC(C4(C)CCC5(CC(O)C(C)C(C(C)C(OC(=O)CC)C(C)C(=O)O)O5)O4)O3)O2)C(C)CC1C (stereo not drawn) [L. C3, laidlomycin propionate]
[1]; [10]
  % Propionic Acid: 37.8%
[1]; [11]
  % Propionic Acid: 41.9%
[1]; [12]
  % Propionic Acid: 44.4%
[1]; [13]
  % Propionic Acid: 32.9%
[2]; Table 4, 1.25 μg/ml, read-out: Accumulation of Lactic Acid - % of Control
  activity at 1.25 µg/mL: 14%
[2]; Table 4, 5 μg/ml, read-out: Accumulation of Lactic Acid - % of Control
  activity at 5 µg/mL: 13%
[2]; Table 4, 20 μg/ml, read-out: Accumulation of Lactic Acid - % of Control
  activity at 20 µg/mL: 14%
[2]; Table 4, read-out: Accumulation of Lactic Acid - % of Control
  activity at 0.31 µg/mL: 71%

## CCCCC(=O)OCC1(O)OC(C2CC(C)C(C3(C)CCC(C4(C)CCC5(CC(O)C(C)C(C(C)C(OC(=O)CC)C(C)C(=O)O)O5)O4)O3)O2)C(C)CC1C (stereo not drawn) [L. C5, laidlomycin pentanoate]
[1]; [10]
  % Propionic Acid: 33.9%
[1]; [11]
  % Propionic Acid: 36.1%
[1]; [12]
  % Propionic Acid: 39.7%
[1]; [13]
  % Propionic Acid: 30.6%
[1]; [3]
  % Propionic Acid: 48.7%
[1]; [4]
  % Propionic Acid: 50.9%
[1]; [5]
  % Propionic Acid: 49.9%
[1]; [6]
  % Propionic Acid: 51.6%
[1]; [7]
  % Propionic Acid: 51.1%
[1]; [8]
  % Propionic Acid: 45.9%
[1]; [9]
  % Propionic Acid: 48.1%
[2]; [14]
  activity at 1.25 µg/mL: 54%
[2]; [15]
  activity at 5 µg/mL: 13%
[2]; [16]
  activity at 20 µg/mL: 11%
[2]; [17]
  activity at 0.31 µg/mL: 109%
[2]; 1.25 μg/ml
  Lactic Acid Accumulation (μ mol/ml): 4.67 μ mol/ml
[2]; 2.5 μg/ml
  Lactic Acid Accumulation (μ mol/ml): 3.75 μ mol/ml
[2]; 5 μg/ml
  Lactic Acid Accumulation (μ mol/ml): 4.04 μ mol/ml
[2]; 10 μg/ml
  Lactic Acid Accumulation (μ mol/ml): 4.63 μ mol/ml
[2]; 20 μg/ml
  Lactic Acid Accumulation (μ mol/ml): 5.13 μ mol/ml
[2]; .313 μg/ml
  Lactic Acid Accumulation (μ mol/ml): 24.62 μ mol/ml
[2]; .625 μg/ml
  Lactic Acid Accumulation (μ mol/ml): 11.91 μ mol/ml

## CCCCCC(=O)OCC1(O)OC(C2CC(C)C(C3(C)CCC(C4(C)CCC5(CC(O)C(C)C(C(C)C(OC(=O)CC)C(C)C(=O)O)O5)O4)O3)O2)C(C)CC1C (stereo not drawn) [L. C6, laidlomycin hexanoate]
[1]; [10]
  % Propionic Acid: 37.1%
[1]; [11]
  % Propionic Acid: 40.1%
[1]; [12]
  % Propionic Acid: 41.7%
[1]; [13]
  % Propionic Acid: 33.0%
[2]; [14]
  activity at 1.25 µg/mL: 18%
[2]; [15]
  activity at 5 µg/mL: 11%
[2]; [16]
  activity at 20 µg/mL: 14%
[2]; [17]
  activity at 0.31 µg/mL: 60%
